According to ChEMBL document CHEMBL1158149, “(+)-Nortrachelogenin, a new pharmacologically active lignan from Wikstroemia indica” (1979):
Active and inactive are the calls of the source. The rule behind the calls is not given here.

Columns and labels:
Mus musculus [1] = species: Mus musculus; test: Effect on central nervous system in mouse assessed as tranquilizing activity; assay type: functional, organism-based
Mus musculus [2] = species: Mus musculus; test: Effect on central nervous system in mouse assessed as muscle relaxant activity; assay type: functional, organism-based
Oryctolagus cuniculus = species: Oryctolagus cuniculus; test: Effect on central nervous system in rabbit assessed as depression; assay type: functional, organism-based
Mus musculus [3] = species: Mus musculus; test: Effect on central nervous system in mouse assessed as prolongation of anesthesia; assay type: functional

## COc1cc(C[C@@H]2COC(=O)[C@@]2(O)Cc2ccc(O)c(OC)c2)ccc1O [WIKSTROMOL]
Mus musculus [1]
  Activity: inactive
Mus musculus [2]
  Activity: inactive
Oryctolagus cuniculus
  Activity: Active
Mus musculus [3]
  LD50: 65 mg/kg
